Assay results from US8673336B2, “Composition, system, and method for modulating release kinetics in implantable drug delivery devices by modifying drug solubility” (Innovational Holdings LLC, priority 2005, dated 2014).
Where a name gives a salt, the structure may show the parent alone.

How the values were obtained:
[1] = in vitro cumulative release from low dose imatinib stents (PLGA 85/15 matrix, base and cap); type: physicochemical; conditions: about 160 micrograms per 16 mm stent, average of three stents
Procedure: The imatinib free-base (slow release) and the imatinib meslate salt (Gleevec) were loaded into holes in stents in a polymer matrix of PLGA 85/15 with a PLGA 85/15 base and cap and the release from the stents was recorded in FIG. 1. A solvent such as NMP or anisol was used to deposit the drug/polymer compositions and then evaporated. The releases shown in FIG. 1 are the average of three stents each. Methods and systems for depositing polymers and drugs within holes in stents are described further in WO 2004/026182 which is incorporated herein by reference.
The dosage for this example was about 160 micrograms normalized for a 16 mm long stent. The free base and salt forms where then combined in the ratios of 86:14, 66:34, and 46:54 and it was shown that the rate of the release (solubility of the drug) is proportional to the percentage of free base or salt. Thus, the selection of a percentage of free base and salt can be used to provide a selected drug release kinetic.
The addition of the free-base form allows the release to be extended past 48 hours to about 72 hours for a formulation of 46% free base and to about 120 hours for a formulation of about 66% free base. While a formulation with 86% free base continues to release imatinib in-vitro at 168 hours and beyond.

[2] = effect of counter ions on in vitro release of imatinib from stents; type: physicochemical; conditions: total drug load 150 μg to 200 μg; PLA-PLC base and cap, PLGA matrix
Procedure: FIG. 4 illustrates the effect of several counter ions on the in vitro release of a drug, in this example imatinib. Total drug load was 150 μg to 200 μg. PLA-PLC was used in the base and cap while the matrix containing the drug was PLGA as in Examples 1 and 2.

| SMILES | rate of release from stents (FIG. 1) [1] | time until release is essentially complete / extent of release duration (FIG. 1) [1] | rate of release from stents (FIG. 1) ([1]; listed as salt) | cumulative in vitro release (FIG. 4) [2] |
| --- | --- | --- | --- | --- |
| Cc1ccc(NC(=O)c2ccc(CN3CCN(C)CC3)cc2)cc1Nc1nccc(-c2cccnc2)n1 [free base, imatinib] | slowest release | – | – | – |
| Cc1ccc(NC(=O)c2ccc(CN3CCN(C)CC3)cc2)cc1Nc1nccc(-c2cccnc2)n1 [imatinib mesylate] | – | about 48 hours | fastest release | significantly higher cumulative release, relatively quickly, than imatinib salicylate |
| Cc1ccc(NC(=O)c2ccc(CN3CCN(C)CC3)cc2)cc1Nc1nccc(-c2cccnc2)n1.O=C(O)c1ccccc1O [imatinib salicylate] | – | – | – | significantly higher that that of imatinib |
